Measured values published in US6831199B1, “Pyrimidine compounds and derivatives thereof” (G. D. Searle & Co., priority 1995, dated 2004).
Where a name gives a salt, the structure may show the parent alone.

Tests used:
[1] = target: T1, Human vitronectin receptor (αvβ3) (Homo sapiens, UniProt P05106+P06756); test: Vitronectin adhesion assay (solid phase receptor assay, competition with biotinylated vitronectin); assay type: binding; conditions: read-out: AvB3 IC50
T1 construct: Human vitronectin receptor (αvβ3) was purified from human placenta; from tissue; host or cells: human placenta
Procedure: VITRONECTIN ADHESION ASSAY
Assay buffer, OPD substrate tablets, and RIA grade BSA were obtained from Sigma (St. Louis, Mo.). Anti-biotin antibody was obtained from Calbiochem (La Jolla, Calif.). Linbro microtiter plates were obtained from Flow Labs (McLean, Va.). ADP reagent was obtained from Sigma (St. Louis, Mo.).
(§1) Solid Phase Receptor Assays
(§2) The purified human vitronectin receptor (αvβ3) was diluted from stock solutions to 1.0 μg/mL in Tris-buffered saline containing 1.0 mM Ca^++, Mg^++, and Mn^++, pH 7.4 (TBS^+++). The diluted receptor was immediately transferred to Linbro microtiter plates at 100 μL/well (100 ng receptor/well). The plates were sealed and incubated overnight at 4° C. to allow the receptor to bind to the wells. All remaining steps were at room temperature. The assay plates were emptied and 200 μL of 1% RIA grade BSA in TBS^+++(TBS^+++/BSA) were added to block exposed plastic surfaces. Following a 2 hour incubation, the assay plates were washed with TBS^+++ using a 96 well plate washer. Logarithmic serial dilution of the test compound and controls were made starting at a stock concentration of 2 mM and using 2 nM biotinylated vitronectin in TBS^+++/BSA as the diluent. This premixing of labeled ligand with test (or control) ligand, and subsequent transfer of 50 μL aliquots to the assay plate was carried out with a CETUS Propette robot; the final concentration of the labeled ligand was 1 nM and the highest concentration of test compound was 1.0×10^−4 M. The competition occurred for two hours after which all wells were washed with a plate washer as before. Affinity purified horseradish peroxidase labeled goat anti-biotin antibody was diluted 1:3000 in TBS^+++/BSA and 125 μL were added to each well. After 30 minutes, the plates were washed and incubated with OPD/H2O2 substrate in 100 mM/L Citrate buffer, pH 5.0. The plate was read with a microtiter plate reader at a wavelength of 450 nm and when the maximum-binding control wells reached an absorbance of about 1.0, the final A450 were recorded for analysis. The data were analyzed using a macro written for use with the EXCEL™ spreadsheet program. The mean, standard deviation, and % CV were determined for duplicate concentrations. The mean A450 values were normalized to the mean of four maximum-binding controls (no competitor added)(B-MAX). The normalized values were subjected to a four parameter curve fit algorithm [Rodbard et al., Int.

[2] = target: T2, Human fibrinogen receptor (αIIbβ3) (Homo sapiens, UniProt P05106+P08514); test: Purified IIb/IIIa receptor assay (solid phase receptor assay, competition with biotinylated vitronectin); assay type: binding; conditions: read-out: IIb/IIIa IC50
T2 construct: Human fibrinogen receptor (αIIbβ3) was purified from outdated platelets; from tissue; host or cells: outdated human platelets
Procedure: PURIFIED IIb/IIIa RECEPTOR ASSAY
Human fibrinogen receptor (αIIbβ3) was purified from outdated platelets. […] Biotinylated human vitronectin was prepared by coupling NHS-biotin from Pierce Chemical Company (Rockford, Ill.) to purified vitronectin as previously described. […] Anti-biotin antibody was obtained from Calbiochem (La Jolla, Calif.). Linbro microtiter plates were obtained from Flow Labs (McLean, Va.). ADP reagent was obtained from Sigma (St. Louis, Mo.).
as §1
as §2, with “human fibrinogen” for “human vitronectin”, “receptor (αIIbβ3)” for “receptor (αvβ3)”, “in TBS^+++ (TBS^+++/BSA)” for “in TBS^+++(TBS^+++/BSA)”, “with […]” for “with OPD/H2O2”, “mM/L citrate” for “mM/L Citrate”, “fit algorithm, [Robard” for “fit algorithm [Rodbard”

SMILES | IC50 [1] | IC50 [2]
O=C(O)CC(NC(=O)CNC(=O)c1cccc(NC2=NCCCC2)c1)c1cc(Cl)cc(Cl)c1 (racemic) [Example 205, (±)3,5-dichloro-β-[[2-[[[3-[(2,3,4,5-tetrahydropyridin-6-yl)amino]phenyl]carbonyl]amino]acetyl]amino]benzenepropanoic acid, trifluoroacetate salt] | 0.00168 µM | 1.24 µM
NC(=S)Nc1cccc(C(=O)NCC(=O)NC(CC(=O)O)c2cc(Cl)cc(Cl)c2)c1 (racemic) [Example 206, (±)β-[[2-[[[3-[(aminothioxomethyl)amino]phenyl]carbonyl]amino]acetyl]amino]-3,5-dichlorobenzenepropanoic acid] | 0.0785 µM | 22 µM
N=C(N)Nc1cccc(C(=O)NCC(=O)NC(CC(=O)O)c2ccc(Br)c(Br)c2)c1 (racemic) [Example 207, (±)β-[[2-[[[3-[(aminoiminomethyl)amino]phenyl]carbonyl]amino]acetyl]amino]-3,4-dibromobenzenepropanoic acid, trifluoroacetate salt] | 0.0009 µM | 0.148 µM
N=C(N)Nc1cccc(C(=O)NCC(=O)NC(CC(=O)O)c2cc(F)cc(C(F)(F)F)c2)c1 (racemic) [Example 208, (±)β-[[2-[[[3-[(aminoiminomethyl)amino]phenyl]carbonyl]amino]acetyl]amino]-3-fluoro-5-(trifluoromethyl)benzenepropanoic acid, trifluoroacetate salt] | 0.00115 µM | 0.277 µM
N=C(N)Nc1cccc(C(=O)NCC(=O)NC(CC(=O)O)c2cc(F)cc(Br)c2)c1 (racemic) [Example 209, (±)β-[[2-[[[3-[(aminoiminomethyl)amino]phenyl]carbonyl]amino]acetyl]amino]-3-bromo-5-fluorobenzenepropanoic acid, trifluoroacetate salt] | 0.00083 µM | 0.14 µM
N=C(N)Nc1cccc(C(=O)NCC(=O)NC(CC(=O)O)c2cc(Br)cc(Br)c2)c1 (racemic) [Example 210, (±)β-[[2-[[[3-[(aminoiminomethyl)amino]phenyl]carbonyl]amino]acetyl]amino]-3,5-dibromobenzenepropanoic acid, trifluoroacetate salt] | 0.00262 µM | 0.343 µM
O=C(O)CC(NC(=O)CNC(=O)c1cccc(NC2=NCCCN2)c1)c1cc(Br)cc(Br)c1 (racemic) [Example 211, (±)3,5-dibromo-β-[[2-[[[3-[(1,4,5,6-tetrahydropyrimidin-2-yl)amino]phenyl]carbonyl]amino]acetyl]amino]benzenepropanoic acid, trifluoroacetate salt] | 0.00047 µM | 0.607 µM
Cc1cc(Br)cc(C(CC(=O)O)NC(=O)CNC(=O)c2cccc(NC(=N)N)c2)c1 (racemic) [Example 212, (±)β-[[2-[[[3-[(aminoiminomethyl)amino]phenyl]carbonyl]amino]acetyl]amino]-3-bromo-5-methylbenzenepropanoic acid, trifluoroacetate salt] | 0.00193 µM | 0.306 µM
N=C(N)Nc1cc(C(=O)NCC(=O)NC(CC(=O)O)c2cc(Br)cc(Br)c2)cc(C(F)(F)F)c1 (racemic) [Example 213, (±)β-[[2-[[[3-[(aminoiminomethyl)amino]-5-(trifluoromethyl)phenyl]carbonyl]amino]acetyl]amino]-3,5-dibromobenzenepropanoic acid, trifluoroacetate salt] | 0.00293 µM | 0.334 µM
N=C(N)Nc1cccc(C(=O)NCC(=O)NC(CC(=O)O)c2cc(Cl)cc(Br)c2)c1 (racemic) [Example 214, (±)β-[[2-[[[3-[(aminoiminomethyl)amino]phenyl]carbonyl]amino]acetyl]amino]-3-bromo-5-chlorobenzenepropanoic acid, trifluoroacetate salt] | 0.00235 µM | 0.454 µM
O=C(O)CC(NC(=O)CNC(=O)c1cccc(NC2=NCCCN2)c1)c1cc(Cl)cc(Br)c1 (racemic) [Example 215, (±)3-bromo-5-chloro-β-[[2-[[[3-[(1,4,5,6-tetrahydropyrimidin-2-yl)amino]phenyl]carbonyl]amino]acetyl]amino]-benzenepropanoic acid, trifluoroacetate salt] | 0.00041 µM | 0.656 µM
N=C(N)Nc1cc(C(=O)NCC(=O)NC(CC(=O)O)c2cc(Cl)cc(Br)c2)cc(C(F)(F)F)c1 (racemic) [Example 216, (±)β-[[2-[[[3-[(aminoiminomethyl)amino]-5-(trifluoromethyl)phenyl]carbonyl]amino]acetyl]amino]-3-bromo-5-chlorobenzenepropanoic acid, trifluoroacetate salt] | 0.001 µM | 0.326 µM
O=C(CNC(=O)c1cccc(NC2=NCCCN2)c1)NC(CC(=O)OCCOCCOCCOCCO)c1cc(Cl)cc(Cl)c1 (racemic) [Example 217, (±)[2-[2-[2-(2-hydroxyethoxy)ethoxy]ethoxy]ethyl]3,5-dichloro-β-[[2-[[[3-[(1,4,5,6-tetrahydropyrimidin-2-yl)amino]phenyl]carbonyl]amino]acetyl]amino]benzenepropanoate, trifluoroacetate salt] | 0.0748 µM | 78.9 µM
N=C(N)Nc1cccc(C(=O)NCC(=O)NC(CC(=O)O)c2cc(Br)cc(I)c2)c1 (racemic) [Example 219, (±)β-[[2-[[[3-[(aminoiminomethyl)amino]phenyl]carbonyl]amino]acetyl]amino]-3-bromo-5-iodobenzenepropanoic acid trifluoroacetate salt] | 0.00229 µM | 0.253 µM
N=C(N)Nc1cccc(C(=O)NCC(=O)NC(CC(=O)O)c2ccc3c(c2)Cc2ccccc2-3)c1 (racemic) [Example 224, (±)β-[[2-[[[3-[(aminoiminomethyl)amino]phenyl]carbonyl]amino]acetyl]amino]-9H-fluorene-2-propanoic acid, trifluoroacetate salt] | 0.00071 µM | 0.0259 µM
N=C(N)Nc1cccc(C(=O)NCC(=O)NC(CC(=O)O)C2CCCCC2)c1 (racemic) [Example 229, (±)β-[[2-[[[3-[(aminoiminomethyl)amino]phenyl]carbonyl]amino]acetyl]amino]cyclohexanepropanoic acid, trifluoroacetate salt, monohydrate] | 0.0391 µM | 10.6 µM
N=C(N)Nc1cccc(C(=O)NCC(=O)NC(CC(=O)O)c2cc(Cl)ccc2O)c1 (racemic) [Example 231, (±)β-[[2-[[[3-[(aminoiminomethyl)amino]phenyl]carbonyl]amino]acetyl]amino]-5-chloro-2-hydroxybenzenepropanoic acid, trifluoroacetate salt, monohydrate] | 0.00299 µM | 0.424 µM
